In ChEMBL document CHEMBL3871301, “Biotransformation of isofraxetin-6-O-β-d-glucopyranoside by Angelica sinensis (Oliv.) Diels callus” (Bioorg Med Chem Lett, 2017):

Experiments:
cells = conditions: Mus musculus, BV-2, 24 h
Description: Antineuroinflammatory activity in mouse BV2 cells assessed as inhibition of LPS-induced NO production after 24 hrs in presence of LPS by Griess reaction based assay

Mus musculus = species on record: Mus musculus; experiment: Cytotoxicity against mouse BV2 cells assessed as reduction in cell viability at antineuroinflammatory IC50 after 24 hrs in presence of LPS by MTT assay; type: toxicity, cell-based; conditions: bv-2, 24 h

IC50 (cells) [µM] | Structure (SMILES) | Activity (Mus musculus)
> 100 | COc1cc2c(c(OC)c1OC)-c1c(cc(OC)c(OC)c1OC)C[C@@](C)(O)[C@@H](C)C2 | –
1.22 | COc1ccc(Cc2ccc(OC)cc2)cc1 | Non-Toxic
10.6 | COC(=O)Nc1ccc(C)c(NC(=O)OC)c1 | Non-Toxic
> 100 | COc1cc2oc(=O)ccc2c(O)c1O | –
> 100 | COc1cc([C@@H]2COc3c(c(OC)cc4ccc(=O)oc34)O2)ccc1O | –
> 100 | COc1cc2ccc(=O)oc2c(OC)c1O | –
0.76 | O=Cc1c[nH]c2ccccc12 [3-FORMYLINDOLE] | Non-Toxic
> 100 | COc1cc([C@H]2Oc3c(OC)cc4ccc(=O)oc4c3O[C@@H]2CO)ccc1O [CLEOMISCOSIN A] | –
35.8 | CN(C)c1ccc(O)c2c1C[C@H]1C[C@H]3[C@H](N(C)C)C(O)=C(C(N)=O)C(=O)[C@@]3(O)C(O)=C1C2=O [MINOCYCLINE] | –
> 100 | O=c1cc[nH]c(=O)[nH]1 [URACIL] | –
> 100 | COc1cc2c(c(OC)c1OC)-c1c(cc3c(c1OC)OCO3)C[C@H](C)[C@H](C)C2 [WUWEIZISU B] | –

Structure (SMILES) | IC50 (cells) [µM] | Activity (Mus musculus)
NC(=O)Cc1ccccc1 | > 100 | –
